Test results: patent publication US20160122386A1, “V1A RECEPTOR AGONISTS” (FERRING B.V., priority 2014, published 2016)
Like-named read-outs stand apart in the source and are kept apart here. Starred links: 1 amine or outer side, 2 acyl side, 3 side chain; linkers in the order of their positions; H or OH if unused. Positions of bridges follow the written chain, without caps; N, C: chain ends. Non-standard residues stand in square brackets, D forms with d. Residues, ends and D or L forms follow the SMILES beside them. Chains are numbered I, II in the order given. *: point of attachment. d(isoGln) = NC(=O)[C@@H](CCC(=O)[*:2])N[*:1]; Phe(4-Cl) = N[C@@H](Cc1ccc(Cl)cc1)C(=O)O; X2 = N=C(N)N[C@@H](CCCCN[*:1])C(=O)[*:2]; isoGln = NC(=O)[C@H](CCC(=O)[*:2])N[*:1]; d(εLys) = N[C@H](CCCCN[*:1])C(=O)[*:2]; εLys = N[C@@H](CCCCN[*:1])C(=O)[*:2]; X4 = N[C@H](CCC(=O)[*:2])C(=O)[*:1]; 3Pal = N[C@@H](Cc1cccnc1)C(=O)O; Aad = N[C@@H](CCCC(=O)O)C(=O)O; Cit = NC(=O)NCCC[C@H](N)C(=O)O; Heptanoyl = CCCCCCC(=O)*; Orn = NCCC[C@H](N)C(=O)O; Dab = NCC[C@H](N)C(=O)O; PhAc = O=C(Cc1ccccc1)*

Target: T1, human V1aR (Homo sapiens, UniProt P37288)
T1 construct: expressed in transfected cells
T1 sequence (P37288 whole entry): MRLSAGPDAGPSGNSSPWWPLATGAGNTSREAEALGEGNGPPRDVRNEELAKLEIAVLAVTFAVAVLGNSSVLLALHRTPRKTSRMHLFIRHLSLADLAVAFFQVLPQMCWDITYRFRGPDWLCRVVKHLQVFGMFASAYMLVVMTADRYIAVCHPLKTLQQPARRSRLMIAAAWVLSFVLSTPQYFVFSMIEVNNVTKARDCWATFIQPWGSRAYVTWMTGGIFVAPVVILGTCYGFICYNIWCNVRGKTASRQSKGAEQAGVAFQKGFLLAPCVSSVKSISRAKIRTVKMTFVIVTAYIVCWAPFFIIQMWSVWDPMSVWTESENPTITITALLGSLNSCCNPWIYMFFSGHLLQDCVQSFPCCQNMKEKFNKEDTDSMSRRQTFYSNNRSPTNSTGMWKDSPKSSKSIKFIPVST
Assay: Agonist activity at vasopressin V1a receptors, cell-based FLIPR calcium assay
Details: for Emax: read-out: Efficacy Avg. (%)
Method: Efficacy (% MPE) is also determined as the percentage of maximal possible effect. This agonist assay utilizes cells from a stable cell line (HEK-flpin) expressing the vasopressin V1a receptor. Intracellular calcium increase in response to agonist is measured through real-time fluorescence of an intracellular calcium-sensitive dye. Cells are exposed to varying concentrations of test agonist compounds whereupon release of intracellular calcium is measured to determine the agonist potency and efficacy.
The cell line stably expresses the lacZ-Zeocin™ fusion gene and is designed for use with the Flp-In™ expression vector containing the gene of interest and the Flp recombinase expression plasmid, pOG44. The cell line contains a single integrated Flp Recombination Target (FRT) site from pFRT/lacZeo or pFRT/lacZeo2. To generate the HEK-flpin cell line stably expressing the human V1aR, the cells were co-transfected with the Flp-In™ expression vector containing the gene of interest (pcDNA5/FRT-hV1aR) and the Flp recombinase expression plasmid pOG44. Flp recombinase mediates insertion of the Flp-In™ expression vector into the genome at the integrated FRT site through site-specific DNA recombination. Stable cell lines expressing the hV1aR from the Flp-In™ expression vector can be generated by selection using hygromycin B. See Life Technologies/Invitrogen manual, Growth and Maintenance of Flp-In™ Cell Lines, Version E, published Feb.
Efficacy of this compound was set to be 100%. A stock solution of 5 mM was made up in DMSO and stored at −20° C.
HEK-flpin-hV1aR, cmcqV1aR, dV1aR and pV1aR cells were maintained in DMEM containing 10% (v/v) FBS-HI, 4 mM GlutaMAX™-I, 25 μg/mL Hygromycin B at 37° C. under 5% CO2 in a humidified atmosphere. Subculture was achieved by splitting semi-confluent cultures 1:3 to 1:6.
All compounds were made up in 100% DMSO at 10 mM stock concentrations and stored at −20° C. The compounds were allowed to thaw just before the assay. […] Typical dilution procedure of 10× final assay concentration involved a 1:100 top dilution (e.g., 2 μl Stock into 198 μl dilution medium) followed by half-log serial dilutions (e.g., 25.3 μl into 54.7 μl dilution medium supplemented with 1% DMSO (v/v)). (Dilution media consisted of phenol-red free DMEM containing 10% FBS-HI, 4 mM GlutaMAX™-I). […] The final DMSO concentration in the assay was 0.1%.
Loading Buffer was prepared by dissolving 1 vial of Calcium 4 Assay reagent in 100 mL of 1× HBSS-20 mM Hepes buffer.
The cells were loaded with Loading Buffer as follows. Cell plates were removed from the incubator and 20 μl of Loading Buffer containing probenecid (2.5 mM) was added to each well. The cells were incubated for 1 hr at 37° C. under 5% CO2 in a humidified atmosphere. The calcium image was obtained as follows.
The cell plates were transferred to FLIPR Tetra, along with a 384 well V-bottom plate pre-loaded with half-log concentrations of test compounds at 10× final test concentrations. The remaining steps of the assay were carried forward by FLIPR Tetra. A baseline reading was taken at 1-second (s) intervals for 5s followed by the addition of 5 μl of 10× compounds (test, reference, or Blank). The agonist-induced fluorescence signal was then measured for 180 s with initial 120 readings at 1-second intervals followed by 20 readings at 3-second intervals. Overall, each well in the FLIPR assay was composed of the following components in a total volume of 50 μl: 20 μl cells; 20 μl Calcium 4 Loading Buffer; […] 10× test or reference compound.

EC50 (HEK-flpin cells stably expressing hV1aR, intracellular calcium fluorescence, averaged, read-out: EC50 (Avg)) [nM]	Structure (SMILES)	EC50 [nM]	Emax [%]
	CC[C@H](C)[C@@H]1NC(=O)[C@H](Cc2ccccc2)NC(=O)[C@@H](N)CSSC[C@@H](C(=O)N2CCC[C@H]2C(=O)N[C@@H](CCCNC(=O)[C@@H](N)CCCCNC(=O)CC[C@H](NC(=O)[C@H](CCCNC(=N)N)NC(=O)[C@@H]2CCCN2C(=O)[C@H](CCCNC(=N)N)NC(=O)[C@H](CC(N)=O)NC(=O)[C@H](Cc2cccnc2)NC(=O)[C@H](Cc2ccccc2)NC(=O)[C@@H](Cc2ccc(OC)cc2)NC(=O)Cc2ccccc2)C(N)=O)C(=O)NCC(N)=O)NC(=O)[C@H](CC(N)=O)NC(=O)[C@H](CCC(N)=O)NC1=O [Compound 24] (I: H-CFIQNCP[Orn]G-NH2 / II: PhAc-[dY](Me)F[3Pal]NRPR[isoGln][εLys]; disulfide I:1-I:6; amide I:8-II:C)	2.3	33
1.5	CC[C@H](C)[C@@H]1NC(=O)[C@H](Cc2ccccc2)NC(=O)[C@@H](N)CSSC[C@@H](C(=O)N2CCC[C@H]2C(=O)N[C@@H](CCCNCCCCCCNC(=O)CC[C@H](NC(=O)[C@H](CCCNC(=N)N)NC(=O)[C@@H]2CCCN2C(=O)[C@H](C)NC(=O)[C@H](CC(N)=O)NC(=O)[C@H](CCC(N)=O)NC(=O)[C@H](Cc2ccccc2)NC(=O)[C@@H](Cc2ccc(OC)cc2)NC(=O)CC(C)C)C(N)=O)C(=O)NCC(N)=O)NC(=O)[C@H](CC(N)=O)NC(=O)[C@H](CCC(N)=O)NC1=O [Compound 21]		47
	CCCCCCC(=O)NCCCC[C@H](NC(=O)CC[C@H](NC(=O)[C@H](CCCNC(=N)N)NC(=O)[C@@H]1CCCN1C(=O)[C@H](C)NC(=O)[C@H](CC(N)=O)NC(=O)[C@H](CCC(N)=O)NC(=O)[C@H](Cc1ccccc1)NC(=O)[C@@H](Cc1ccc(OC)cc1)NC(=O)Cc1ccccc1)C(N)=O)C(=O)NCCCC[C@H](N)C(=O)NCC[C@H](NC(=O)[C@@H]1CCCN1C(=O)[C@@H]1CSSC[C@H](N)C(=O)N[C@@H](Cc2ccccc2)C(=O)N[C@@H]([C@@H](C)CC)C(=O)N[C@@H](CCC(N)=O)C(=O)N[C@@H](CC(N)=O)C(=O)N1)C(=O)NCC(N)=O [Compound 43] (I: H-CFIQNCP[Dab]G-NH2 / II: PhAc-[dY](Me)FQNAPR[isoGln]K(Heptanoyl)[εLys]; disulfide I:1-I:6; amide I:8-II:C)	1.4	59
	CC[C@H](C)[C@@H]1NC(=O)[C@H](Cc2ccccc2)NC(=O)[C@@H](N)CSSC[C@@H](C(=O)N2CCC[C@H]2C(=O)N[C@@H](CCNC(=O)[C@H](CCCCNC(=O)CC[C@H](NC(=O)[C@H](CCCNC(=N)N)NC(=O)[C@@H]2CCCN2C(=O)[C@H](C)NC(=O)[C@H](CC(N)=O)NC(=O)[C@H](CCC(N)=O)NC(=O)[C@H](Cc2ccccc2)NC(=O)[C@@H](Cc2ccc(OC)cc2)NC(=O)Cc2ccccc2)C(N)=O)NC(=N)N)C(=O)NCC(N)=O)NC(=O)[C@H](CC(N)=O)NC(=O)[C@H](CCC(N)=O)NC1=O [Compound 29] (I: H-CFIQNCP[Dab]G-NH2 / II: PhAc-[dY](Me)FQNAPR[isoGln][X2]; disulfide I:1-I:6 (inferred); amide I:8-II:C (inferred))	1.2	39
	CC[C@H](C)[C@@H]1NC(=O)[C@H](Cc2ccccc2)NC(=O)[C@@H](N)CSSC[C@@H](C(=O)N2CCC[C@H]2C(=O)N[C@@H](CCNC(=O)[C@H](N)CCC(=O)NCCCC[C@H](NC(=O)[C@H](CCCNC(=N)N)NC(=O)[C@@H]2CCCN2C(=O)[C@H](C)NC(=O)[C@H](CC(N)=O)NC(=O)[C@H](CCC(N)=O)NC(=O)[C@H](Cc2ccccc2)NC(=O)[C@@H](Cc2ccc(OC)cc2)NC(=O)Cc2ccccc2)C(N)=O)C(=O)NCC(N)=O)NC(=O)[C@H](CC(N)=O)NC(=O)[C@H](CC(N)=O)NC1=O [Compound 66] (I: H-CFINNCP[Dab]G-NH2 / II: PhAc-[dY](Me)FQNAPRK-NH2; disulfide I:1-I:6; linker I:8-II:8 via X4)	2.3	30
	CC[C@H](C)[C@@H]1NC(=O)[C@H](Cc2ccccc2)NC(=O)[C@@H](N)CSSC[C@@H](C(=O)N2CCC[C@H]2C(=O)N[C@@H](CCNC(=O)[C@@H](N)CCCCNC(=O)CC[C@@H](NC(=O)[C@H](CCCNC(=N)N)NC(=O)[C@@H]2CCCN2C(=O)[C@H](CCCNC(N)=O)NC(=O)[C@H](CC(N)=O)NC(=O)[C@H](CCC(N)=O)NC(=O)[C@H](Cc2ccccc2)NC(=O)[C@@H](Cc2ccc(OC)cc2)NC(=O)Cc2ccccc2)C(N)=O)C(=O)NCC(N)=O)NC(=O)[C@H](CC(N)=O)NC(=O)[C@H](CCC(N)=O)NC1=O [Compound 57] (I: H-CFIQNCP[Dab]G-NH2 / II: PhAc-[dY](Me)FQN[Cit]PR[d(isoGln)][εLys]; disulfide I:1-I:6; amide I:8-II:C)	1.4	63
	CC[C@H](C)[C@@H]1NC(=O)[C@H](Cc2ccccc2)NC(=O)[C@@H](N)CSSC[C@@H](C(=O)N2CCC[C@H]2C(=O)N[C@@H](CCCNC(=O)[C@@H](N)CCCCNC(=O)CC[C@H](NC(=O)[C@H](CCCNC(=N)N)NC(=O)[C@@H]2CCCN2C(=O)[C@H](CCCNC(=N)N)NC(=O)[C@H](CC(N)=O)NC(=O)[C@H](CCC(N)=O)NC(=O)[C@H](Cc2ccccc2)NC(=O)[C@H](Cc2ccc(Cl)cc2)NC(=O)Cc2ccccc2)C(N)=O)C(=O)NCC(N)=O)NC(=O)[C@H](CC(N)=O)NC(=O)[C@H](CCC(N)=O)NC1=O [Compound 27] (I: H-CFIQNCP[Orn]G-NH2 / II: PhAc-[Phe(4-Cl)]FQNRPR[isoGln][εLys]; disulfide I:1-I:6; amide I:8-II:C)	1	70
	CC[C@H](C)[C@@H]1NC(=O)[C@H](Cc2ccccc2)NC(=O)[C@@H](N)CSSC[C@@H](C(=O)N2CCC[C@H]2C(=O)N[C@@H](CCNC(=O)[C@H](N)CCCCNC(=O)CC[C@H](NC(=O)[C@H](CCCNC(=N)N)NC(=O)[C@@H]2CCCN2C(=O)[C@H](CCC(N)=O)NC(=O)[C@H](CC(N)=O)NC(=O)[C@H](CCC(N)=O)NC(=O)[C@H](Cc2ccccc2)NC(=O)[C@@H](Cc2ccc(OC)cc2)NC(=O)Cc2ccccc2)C(N)=O)C(=O)NCC(N)=O)NC(=O)[C@H](CC(N)=O)NC(=O)[C@H](CCCC(N)=O)NC1=O [Compound 61] (I: H-CFI[Aad](NH2)NCP[Dab]G-NH2 / II: PhAc-[dY](Me)FQNQPR[isoGln][d(εLys)]; disulfide I:1-I:6; amide I:8-II:C)	2.5	38
	CC[C@H](C)[C@@H]1NC(=O)[C@H](Cc2ccccc2)NC(=O)[C@@H](N)CSSC[C@@H](C(=O)N2CCC[C@H]2C(=O)N[C@@H](CCCNCCCCCNC(=O)CC[C@H](NC(=O)[C@H](CCCNC(=N)N)NC(=O)[C@@H]2CCCN2C(=O)[C@H](CCCNC(N)=O)NC(=O)[C@H](CC(N)=O)NC(=O)[C@H](CCC(N)=O)NC(=O)[C@H](Cc2ccc(Cl)cc2)NC(=O)[C@@H](Cc2ccc(OC)cc2)NC(=O)Cc2ccccc2)C(N)=O)C(=O)NCC(N)=O)NC(=O)[C@H](CC(N)=O)NC(=O)[C@H](CCC(N)=O)NC1=O [Compound 45]	0.8	72
	CC[C@H](C)[C@@H]1NC(=O)[C@H](Cc2ccccc2)NC(=O)[C@@H](N)CSSC[C@@H](C(=O)N2CCC[C@H]2C(=O)N[C@@H](CCCNCCCCNC(=O)CC[C@H](NC(=O)[C@H](CCCNC(=N)N)NC(=O)[C@@H]2CCCN2C(=O)[C@H](CCCNC(=N)N)NC(=O)[C@H](CC(N)=O)NC(=O)[C@H](CCC(N)=O)NC(=O)[C@H](Cc2ccccc2)NC(=O)[C@@H](Cc2ccc(OC)cc2)NC(=O)Cc2ccccc2)C(N)=O)C(=O)NCC(N)=O)NC(=O)[C@H](CC(N)=O)NC(=O)[C@H](CCC(N)=O)NC1=O [Compound 10]	> 10000	26
